Results as given in ChEMBL document CHEMBL5665443, “Enzyme Inhibitor Single Concentration assay results for EUbOPEN Chemogenomics Library” (2024).

Key:
[1] = target: Uracil-DNA glycosylase (Homo sapiens) (UniProt P13051); conditions: Hit No;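 further: UNG excision on a quenched double-stranded DNA oligo probe, with APE1 added for strand incision and turnover, read as fluorescence at 594 nm as strands separate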
Description: Inhibition of UNG by quantifying inhibition of UNG-mediated cleavage and dissociation of quenched duplex DNA oligonucleotides, measured as fluorescence at 594 nm. To generate a functional strand incision and increase turn-over this assay is coupled to APE1.

[2] = target: N-glycosylase/DNA lyase (Homo sapiens) (UniProt O15527);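 further: OGG1 cleavage of a quenched duplex DNA oligonucleotide, coupled to APE1 for strand incision, read as fluorescence at 594 nm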
Description: Inhibition of OGG1 by quantifying inhibition of OGG1-mediated cleavage and dissociation of quenched duplex DNA oligonucleotides, measured as fluorescence at 594 nm. To generate a functional strand incision and increase turn-over this assay is coupled to APE1.

[3] = target: Methyl-CpG-binding domain protein 4 (Homo sapiens) (UniProt O95243); conditions: Hit No;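 further: MBD4 activity read as fluorescence at 594 nm from cleavage and release of a quenched duplex DNA oligonucleotide, with APE1 coupled to incise the strand and raise turnover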
Description: Inhibition of MBD4 by quantifying inhibition of MBD4-mediated cleavage and dissociation of quenched duplex DNA oligonucleotides, measured as fluorescence at 594 nm. To generate a functional strand incision and increase turn-over this assay is coupled to APE1.

[4] = target: T1, Endonuclease 8-like 2 (Homo sapiens) (UniProt Q969S2); conditions: Compound Concentration 10.0 uM, Hit No;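 further: fluorescence at 594 nm reports NEIL2 cutting and release of a quenched double-stranded DNA oligo substrate, reduced signal read as inhibition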
T1 sequence (whole entry): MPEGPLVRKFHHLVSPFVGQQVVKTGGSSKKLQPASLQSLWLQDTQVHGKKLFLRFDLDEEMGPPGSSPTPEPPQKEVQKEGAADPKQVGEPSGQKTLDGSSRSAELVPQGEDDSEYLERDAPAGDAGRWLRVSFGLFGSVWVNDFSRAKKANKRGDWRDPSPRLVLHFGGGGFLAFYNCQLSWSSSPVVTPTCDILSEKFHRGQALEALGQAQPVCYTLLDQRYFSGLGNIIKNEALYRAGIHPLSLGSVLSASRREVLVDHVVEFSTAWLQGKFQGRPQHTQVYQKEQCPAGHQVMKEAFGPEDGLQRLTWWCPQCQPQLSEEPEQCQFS
Description: Inhibition of NEIL2 by quantifying inhibition of NEIL2-mediated cleavage and dissociation of quenched duplex DNA oligonucleotides, measured as fluorescence at 594 nm.

[5] = target: G/T mismatch-specific thymine DNA glycosylase (Homo sapiens) (UniProt Q13569); conditions: Hit No;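 further: human TDG cleavage of quenched duplex DNA oligonucleotides coupled to APE1, strand release read as fluorescence at 594 nm, inhibition of TDG activity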
Description: Inhibition of TDG by quantifying inhibition of TDG-mediated cleavage and dissociation of quenched duplex DNA oligonucleotides, measured as fluorescence at 594 nm. To generate a functional strand incision and increase turn-over this assay is coupled to APE1.

[6] = target: T2, Adenine DNA glycosylase (Homo sapiens) (UniProt Q9UIF7); conditions: Hit No;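 further: human MUTYH activity read as 594 nm fluorescence from cleavage and release of a quenched DNA duplex, coupled with APE1 for strand incision, lower signal meaning inhibition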
T2 sequence (whole entry): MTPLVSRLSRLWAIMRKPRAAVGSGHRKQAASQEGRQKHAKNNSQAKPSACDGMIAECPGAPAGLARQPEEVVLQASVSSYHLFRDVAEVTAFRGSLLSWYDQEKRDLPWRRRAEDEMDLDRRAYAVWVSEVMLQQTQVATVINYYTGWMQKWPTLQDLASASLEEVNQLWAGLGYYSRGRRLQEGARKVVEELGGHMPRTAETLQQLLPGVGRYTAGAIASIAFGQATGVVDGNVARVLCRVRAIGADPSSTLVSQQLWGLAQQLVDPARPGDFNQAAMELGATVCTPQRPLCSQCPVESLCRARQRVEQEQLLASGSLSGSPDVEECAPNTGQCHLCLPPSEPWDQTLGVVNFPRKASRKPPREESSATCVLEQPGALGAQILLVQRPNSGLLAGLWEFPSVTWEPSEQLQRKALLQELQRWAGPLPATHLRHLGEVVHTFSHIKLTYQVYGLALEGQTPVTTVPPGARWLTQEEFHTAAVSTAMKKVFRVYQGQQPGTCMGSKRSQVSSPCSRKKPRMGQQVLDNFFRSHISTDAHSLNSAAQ
Description: Inhibition of MUTYH by quantifying inhibition of MUTYH-mediated cleavage and dissociation of quenched duplex DNA oligonucleotides, measured as fluorescence at 594 nm. To generate a functional strand incision and increase turn-over this assay is coupled to APE1.

[7] = target: Endonuclease 8-like 1 (Homo sapiens) (UniProt Q96FI4); conditions: Hit No;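 further: fluorescence at 594 nm from quenched duplex DNA oligonucleotides released by NEIL1 cleavage and strand separation, reported as reduction of this enzyme activity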
Description: Inhibition of NEIL1 by quantifying inhibition of NEIL1-mediated cleavage and dissociation of quenched duplex DNA oligonucleotides, measured as fluorescence at 594 nm.

[8] = target: T3, Endonuclease III-like protein 1 (Homo sapiens) (UniProt P78549); conditions: Hit No;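 further: enzyme assay tracking NTHL1 cutting and release of a quenched double-stranded DNA oligo substrate, read as fluorescence at 594 nm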
T3 sequence (whole entry): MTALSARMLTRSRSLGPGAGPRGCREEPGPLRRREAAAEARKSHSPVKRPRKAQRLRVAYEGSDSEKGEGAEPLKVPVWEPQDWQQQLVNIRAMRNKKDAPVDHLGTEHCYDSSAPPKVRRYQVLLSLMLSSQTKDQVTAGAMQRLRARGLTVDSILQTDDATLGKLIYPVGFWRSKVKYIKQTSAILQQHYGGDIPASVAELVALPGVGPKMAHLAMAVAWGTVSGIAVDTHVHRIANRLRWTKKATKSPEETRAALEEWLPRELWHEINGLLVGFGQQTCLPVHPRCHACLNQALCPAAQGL
Description: Inhibition of NTHL1 by quantifying inhibition of NTHL1-mediated cleavage and dissociation of quenched duplex DNA oligonucleotides, measured as fluorescence at 594 nm.

[9] = target: DNA-3-methyladenine glycosylase (Homo sapiens) (UniProt P29372); conditions: Compound Concentration 10.0 uM, Hit No;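 further: enzyme assay where MPG cuts a quenched duplex DNA oligonucleotide probe, paired with APE1 for strand incision and turnover, read as fluorescence at 594 nm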
Description: Inhibition of MPG by quantifying inhibition of MPG-mediated cleavage and dissociation of quenched duplex DNA oligonucleotides, measured as fluorescence at 594 nm. To generate a functional strand incision and increase turn-over this assay is coupled to APE1.

[10] = target: T4, Single-strand selective monofunctional uracil DNA glycosylase (Homo sapiens) (UniProt Q53HV7); conditions: Hit No;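 further: enzymatic SMUG1 assay coupled with APE1, reading fluorescence at 594 nm released when a quenched double-stranded DNA oligonucleotide substrate is cleaved and separated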
T4 sequence (whole entry): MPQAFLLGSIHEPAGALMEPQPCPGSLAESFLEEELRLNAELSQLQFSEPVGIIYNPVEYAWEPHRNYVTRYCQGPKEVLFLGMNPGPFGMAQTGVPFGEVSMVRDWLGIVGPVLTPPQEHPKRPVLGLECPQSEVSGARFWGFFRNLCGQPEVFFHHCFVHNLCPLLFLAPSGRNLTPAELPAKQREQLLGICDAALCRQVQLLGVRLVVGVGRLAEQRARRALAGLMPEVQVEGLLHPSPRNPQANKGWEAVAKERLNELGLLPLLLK
Description: Inhibition of SMUG1 by quantifying inhibition of SMUG1-mediated cleavage and dissociation of quenched duplex DNA oligonucleotides, measured as fluorescence at 594 nm. To generate a functional strand incision and increase turn-over this assay is coupled to APE1.

[11] = Compound Concentration 10.0 uM, Hit No

Sequence of Methyl-CpG-binding domain protein 4 (Homo sapiens) (O95243 whole entry, the tested form may be a part): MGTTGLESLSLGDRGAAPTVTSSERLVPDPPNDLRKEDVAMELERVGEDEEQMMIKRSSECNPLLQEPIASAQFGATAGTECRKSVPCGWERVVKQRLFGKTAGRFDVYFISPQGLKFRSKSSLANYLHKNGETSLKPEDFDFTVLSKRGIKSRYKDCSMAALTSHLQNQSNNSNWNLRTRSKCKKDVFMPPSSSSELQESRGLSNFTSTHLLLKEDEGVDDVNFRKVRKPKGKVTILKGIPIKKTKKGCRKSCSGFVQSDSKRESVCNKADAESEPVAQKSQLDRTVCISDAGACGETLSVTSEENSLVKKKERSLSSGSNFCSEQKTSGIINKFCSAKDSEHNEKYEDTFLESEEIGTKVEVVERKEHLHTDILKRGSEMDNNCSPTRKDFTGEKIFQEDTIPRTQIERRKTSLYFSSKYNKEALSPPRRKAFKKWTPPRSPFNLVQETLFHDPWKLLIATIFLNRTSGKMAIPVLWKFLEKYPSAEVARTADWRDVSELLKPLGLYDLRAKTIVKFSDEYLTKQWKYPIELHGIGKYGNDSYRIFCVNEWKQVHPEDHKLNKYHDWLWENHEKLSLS
Sequence of G/T mismatch-specific thymine DNA glycosylase (Homo sapiens) (Q13569 whole entry): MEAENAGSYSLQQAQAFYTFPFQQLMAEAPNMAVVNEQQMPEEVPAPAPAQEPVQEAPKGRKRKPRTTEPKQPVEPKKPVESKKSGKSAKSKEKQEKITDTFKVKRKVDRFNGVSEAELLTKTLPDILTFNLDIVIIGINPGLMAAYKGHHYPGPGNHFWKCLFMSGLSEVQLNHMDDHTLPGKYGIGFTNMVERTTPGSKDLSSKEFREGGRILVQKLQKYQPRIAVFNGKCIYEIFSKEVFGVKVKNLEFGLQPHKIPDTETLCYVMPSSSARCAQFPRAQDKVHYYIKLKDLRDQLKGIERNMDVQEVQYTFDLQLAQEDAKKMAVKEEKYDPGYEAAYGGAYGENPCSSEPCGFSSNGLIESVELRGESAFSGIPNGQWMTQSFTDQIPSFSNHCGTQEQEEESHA
Sequence of DNA-3-methyladenine glycosylase (Homo sapiens) (P29372 whole entry): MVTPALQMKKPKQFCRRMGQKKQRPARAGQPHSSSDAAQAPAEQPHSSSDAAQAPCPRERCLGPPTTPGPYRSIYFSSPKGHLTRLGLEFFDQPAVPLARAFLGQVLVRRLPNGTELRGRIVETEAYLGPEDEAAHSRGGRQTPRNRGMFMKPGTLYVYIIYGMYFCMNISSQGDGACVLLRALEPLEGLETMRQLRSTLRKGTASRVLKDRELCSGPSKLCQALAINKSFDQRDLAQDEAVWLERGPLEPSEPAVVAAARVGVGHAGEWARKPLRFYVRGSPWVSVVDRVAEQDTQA
Sequence of N-glycosylase/DNA lyase (Homo sapiens) (O15527 whole entry, the tested form may be a part): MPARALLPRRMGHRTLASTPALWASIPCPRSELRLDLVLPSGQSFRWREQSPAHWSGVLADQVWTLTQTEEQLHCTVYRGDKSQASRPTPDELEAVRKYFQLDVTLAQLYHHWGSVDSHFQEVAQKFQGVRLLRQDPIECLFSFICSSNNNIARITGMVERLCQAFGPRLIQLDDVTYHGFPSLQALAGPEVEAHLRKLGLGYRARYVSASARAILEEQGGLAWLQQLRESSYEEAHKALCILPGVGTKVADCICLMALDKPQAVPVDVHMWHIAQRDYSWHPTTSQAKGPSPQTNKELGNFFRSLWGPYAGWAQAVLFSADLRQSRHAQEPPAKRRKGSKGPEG
Sequence of Endonuclease 8-like 1 (Homo sapiens) (Q96FI4 whole entry): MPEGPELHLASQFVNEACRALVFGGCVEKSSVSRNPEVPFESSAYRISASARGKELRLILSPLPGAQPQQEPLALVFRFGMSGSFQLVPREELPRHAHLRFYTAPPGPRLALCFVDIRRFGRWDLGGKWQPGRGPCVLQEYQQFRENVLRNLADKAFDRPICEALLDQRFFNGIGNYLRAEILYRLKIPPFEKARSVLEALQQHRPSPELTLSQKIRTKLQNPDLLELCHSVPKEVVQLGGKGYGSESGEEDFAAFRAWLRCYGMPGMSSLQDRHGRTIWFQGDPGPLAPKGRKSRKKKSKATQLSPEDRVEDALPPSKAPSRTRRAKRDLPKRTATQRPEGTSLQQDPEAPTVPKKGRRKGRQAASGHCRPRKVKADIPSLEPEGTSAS
Sequence of Uracil-DNA glycosylase (Homo sapiens) (P13051 whole entry): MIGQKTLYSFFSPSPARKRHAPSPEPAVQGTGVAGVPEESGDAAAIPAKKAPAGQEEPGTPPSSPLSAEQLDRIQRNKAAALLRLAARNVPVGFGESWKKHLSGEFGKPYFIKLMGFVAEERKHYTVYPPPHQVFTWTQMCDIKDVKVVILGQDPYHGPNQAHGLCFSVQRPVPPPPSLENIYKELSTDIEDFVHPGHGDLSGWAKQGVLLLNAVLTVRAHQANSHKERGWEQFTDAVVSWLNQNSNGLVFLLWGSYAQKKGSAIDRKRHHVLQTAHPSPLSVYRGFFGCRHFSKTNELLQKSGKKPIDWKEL

Row | Compound | inhibition ([1]; Compound Concentration 10.0 uM) | inhibition [2, 11] | inhibition ([3]; Compound Concentration 10.0 uM) | inhibition [4] | inhibition ([5]; Compound Concentration 10.0 uM) | inhibition ([6]; Compound Concentration 10.0 uM) | inhibition ([7]; Compound Concentration 10.0 uM) | inhibition ([8]; Compound Concentration 10.0 uM) | inhibition [9] | inhibition ([10]; Compound Concentration 10.0 uM) | inhibition ([2]; Compound Concentration 10.0 uM, Hit Yes) | inhibition ([1]; Compound Concentration 1.0 uM) | inhibition ([2]; Compound Concentration 1.0 uM, Hit No) | inhibition ([3]; Compound Concentration 1.0 uM) | inhibition ([5]; Compound Concentration 1.0 uM) | inhibition ([6]; Compound Concentration 1.0 uM) | inhibition ([7]; Compound Concentration 1.0 uM) | inhibition ([8]; Compound Concentration 1.0 uM) | inhibition ([10]; Compound Concentration 1.0 uM)
1 | COc1ccc(CC(=O)NCc2ccccc2-c2ccccc2C(=O)NCc2ccc(F)cc2F)cc1 | 1.16% | -0.346% | 5.5% | 2.71% | 13.6% | 11.7% | 0.75% | -5.21% | 22.4% | 11% |  |  |  |  |  |  |  |  | 
2 | Nc1nc2cc(-c3cc(Cl)ccc3Oc3cc(F)c(S(=O)(=O)Nc4ncns4)cc3F)ccc2[nH]1 | 1.83% | -2.14% | 38.8% | -7.23% | 33.8% | 39.3% | 6.97% | 6.35% | 20.7% | 4.45% |  |  |  |  |  |  |  |  | 
3 | Cc1nc(-c2ccc(C(F)(F)F)cc2)sc1COc1ccc([C@H](CC(=O)O)c2ccon2)cc1 | -5.51% |  | 20.8% | 2.26% | 27% | 23.2% | 3.95% | 16.6% | 3.92% | 7.09% | 41.1% |  |  |  |  |  |  |  | 
4 | CCc1nnc(NS(=O)(=O)c2ccc(NC(=S)NC(=O)/C=C/c3ccc(F)cc3)cc2)s1 | 3.3% | 12.1% | 48% | 9.5% | 49.8% | 54.8% | -4.5% | 23.2% | 31.8% | 24.8% |  |  |  |  |  |  |  |  | 
5 | O=[N+]([O-])c1ccc(CN2CCOCCOCCN(Cc3ccc([N+](=O)[O-])cc3)CCOCC2)cc1 | -6.52% | -5.46% | 13.5% | -0.35% | -1.51% | 3.42% | -2.36% | 23.7% | 31.4% | -2.67% |  |  |  |  |  |  |  |  | 
6 | CCCC(=O)N[C@@H](Cc1ccc(O)cc1)C(=O)NCCCCCCCNCCCCN | -4.14% | -0.213% | 20.4% | -1.62% | 12.1% | -4.41% | 4.46% | -3.56% | 2.86% | -0.749% |  |  |  |  |  |  |  |  | 
7 | COc1cc(OC)cc(C(=O)NNC(=O)Nc2cccc3ccccc23)c1 | -7.99% | 3.09% | -8.62% | 5.26% | 11.6% | 2.2% | -1.69% | 2.66% | 3.65% | 3.6% |  |  |  |  |  |  |  |  | 
8 | O=C(O)CCc1ccc(NCc2cccc(Oc3ccccc3)c2)cc1 | -1.29% | -0.368% | 13.6% | -9.01% | 20% | 13.9% | -7.7% | -4.39% | 6.47% | -4.08% |  |  |  |  |  |  |  |  | 
9 | Cn1cc(Cl)c2c(Oc3c(F)cc(Nc4cc(Cl)nc(N)n4)cc3F)ccnc21 | 11.7% | -9.66% | 64.2% | 2.57% | 53.4% | 40.4% | 4.86% | -1.29% | -1.23% | 27.1% |  | 2.73% | -2.36% | -4.8% | 48.5% | 1.46% | -7.79% | 8.46% | 17.9%
10 | COc1cc2nc(N3CCN(C(=O)C4CCCO4)CC3)nc(N)c2cc1OC (stereo not drawn) | -7.11% | 0.439% | 17% | 22.5% | 22.2% | 19% | 13.6% | -3.21% | 11.2% | 3.65% |  |  |  |  |  |  |  |  | 
11 | CC(C)c1noc(N2CCC(COc3ccc(-c4ccc(S(C)(=O)=O)cc4)nc3)CC2)n1 | -6.54% | 3.18% | -9.32% | 5.01% | 3% | 18.2% | 10.9% | -6.14% | -8.23% | -6.43% |  |  |  |  |  |  |  |  | 
